From patent US20180028487A1, “DERMATOLOGICAL FORMULATIONS OF 2-(2-ETHOXY-2-OXOETHYL)(METHYL)AMINO-2-OXOETHYL 5-(TETRADECYLOXY)FURAN-2-CARBOXYLATE” (Dermira Inc., priority 2016, published 2018)

Experiments:
[1] = test system: acne vulgaris on the face; assay: Dose range study, efficacy (Example 5); format: in vivo, human; details: for LS mean change in noninflammatory lesion counts: Week 12; for LS mean change in inflammatory lesion counts / percentage of subjects achieving minimum 2-grade improvement in IGA score: baseline to Week 12
Procedure: Dose ranges were determined in adult subjects with acne vulgaris on the face. The study was a randomized, vehicle controlled, parallel group study designed to assess the efficacy and safety of the active formulations comprising a compound of Formula (Ia) at a concentration of 7.5% BID, 7.5% QD, and 4.0% QD, respectively. The results were compared to those of vehicle formulation (BID or QD) on subjects with moderate to severe facial acne. A total of 420 adult subjects were randomized to active formulations (7.5% BID, 7.5% QD, and 4.0% QD) and vehicle (BID and QD) in a 2:2:2:1:1 fashion. Study treatments continued for 12 weeks. Subjects returned to the study clinic at Weeks 1, 2 (phone call only), 4, 8 and 12 (study exit). Primary efficacy endpoints for this study were 1) the mean absolute change from baseline to Week 12 in inflammatory and noninflammatory lesion counts and 2) the proportion of subjects who achieved a 2-grade improvement in the IGA from baseline to Week 12. Absolute change from baseline to Week 12 in inflammatory and non-inflammatory lesion counts was analyzed using an analysis of covariance (ANCOVA) model with a factor of treatment and the respective baseline lesion count as a covariate. The proportion of subjects who are dichotomized to success (minimum 2-grade improvement from baseline in IGA score) at Week 12 was analyzed using a Cochran-Mantel-Haenszel (CMH) test. Exploratory analyses were conducted for linearity of a dose response for the proportion of subjects dichotomized to an IGA success.

[2] = Dose range study, safety and tolerability (Example 5); format: in vivo, human; details: 4.0% QD, 7.5% QD and 7.5% BID, 12-week treatment period
Procedure: Safety was assessed through adverse events (AEs), local skin responses (LSRs, determined by the presence and severity of erythema, dryness, peeling, burning/stinging, and pruritus), laboratory tests (serum chemistry, and hematology), vital signs, and physical examinations.

[3] = Stability studies on non-GMP and GMP material; format: physicochemical
Procedure: Stability studies conducted on non-GMP and GMP material have shown chemical stability the compound of Formula (Ia) for 24 months at 5° C. and 25° C./60% Relative Humidity (RH); and for 6 months at 40° C./75% RH.

[4] = Dose range study, pharmacokinetics: plasma concentrations (Example 5); format: in vivo, human; details: for systemic absorption: topical application at 7.5% strength, twice daily for 12 weeks
Procedure: A subset of study centers enrolled subjects for an assessment of PK. Blood was to be collected from approximately 10 subjects per treatment group. At the Day 1 and Week 8 visits, a predose blood sample was collected prior to the first application of study drug for the day; samples were then collected at 1, 2, 3, and 4 hours after application of study drug.

[5] = Solubility in solvents / vehicle; format: physicochemical
Source text: In various embodiments, the dermatologically acceptable vehicle comprises dimethyl isosorbide and one or more alcohols. […] DMI is freely miscible with alcohols such as ethanol, isopropanol (IPA), polyols such as polyethylene glycol (PEG 200 or PEG 400), or a mixture thereof. By adjusting the relevant amounts of DMI and the alcohol(s), the solubility and saturation of the active ingredient in the dermatological formulation can be adjusted to maximize the thermodynamic activity of the active ingredient in the gel. In a specific embodiment, the dermatologically acceptable vehicle comprises, by weight ratios, 50 parts ethanol, 20 parts IPA, 15.5 parts PEG400, and 12.5 parts DMI. The vehicle is typically a clear gel, and bears the same appearance with or without the active ingredient.
In certain embodiment, the crystalline product form is a white crystalline solid with a low-melting point (64-66° C.), having solubility of about 90 mg/g (±5 mg/g) in a solvent system comprising Ethanol/IPA/PEG 400/DMI at 50/20/15.5/12.5 (w/w).

[6] = cited from earlier work

CCCCCCCCCCCCCCOc1ccc(C(=O)OCC(=O)N(C)CC(=O)OCC)o1 [Formula (Ia), 2-((2-ethoxy-2-oxoethyl)(methyl)amino)-2-oxoethyl 5 (tetradecyloxy) furan-2-carboxylate]
LS mean change in noninflammatory lesion counts ([1]; 4.0% QD): −15.3 | LS mean change in inflammatory lesion counts ([1]; 4.0% QD): −14.6 | percentage of subjects achieving minimum 2-grade improvement in IGA score ([1]; 4.0% QD): 21.6% | LS mean change in noninflammatory lesion counts ([1]; 7.5% BID): −17.5 | LS mean change in inflammatory lesion counts ([1]; 7.5% BID): −15.0 | percentage of subjects achieving minimum 2-grade improvement in IGA score ([1]; 7.5% BID): 25.9% | LS mean change in noninflammatory lesion counts ([1]; 7.5% QD): −13.4 | LS mean change in inflammatory lesion counts ([1]; 7.5% QD): −14.5 | tolerability [2]: well tolerated | chemical stability ([3]; 5° C.): 24 months | stability of the crystal form ([3]; 5° C.): up to 36 months | stability of the crystal form ([3]; 25° C./60% RH): up to 36 months | chemical stability ([3]; 25° C./60% Relative Humidity (RH)): 24 months | stability of the crystal form ([3]; 30° C./65% RH): up to 27 months | chemical stability ([3]; 40° C./75% RH): 6 months | plasma concentration of Compound of Formula (Ia) ([4]; Day 1, topical, all but one subject): undetectable | plasma concentration of Compound of Formula (Ia) ([4]; Week 8, all tested subjects): undetectable | concentration at 2 h ([4]; human, plasma, topical, Day 1, one subject, one time point (2 hours post-dosing), read-out: plasma concentration of Compound of Formula (Ia)): 0.304 ng/mL | systemic absorption [4]: little or no | solubility ([5]; crystalline product form, solvent system Ethanol/IPA/PEG 400/DMI at 50/20/15.5/12.5 (w/w)): about 90 mg/g | solubility ([5]; in dimethyl isosorbide (DMI)): about 125 mg/g

CCCCCCCCCCCCCCOc1ccc(C(=O)O)o1 [TOFA, 5-(tetradecyloxy)-2-furoic acid, reference compound]
bioavailability through the skin [6]: poor | systemic absorption [4]: little or no
